These results are taken from patent US20260191817A1, “FIBROBLAST MODULATORS IN STROMA-RICH TUMORS” (UNIVERSITEIT GENT, priority 2022, published 2026).

For data set [1], the system named is CAF03 glioblastoma CAFs. As to the kind of experiment: AFM spheroid stiffness, CAF03 glioblastoma CAFs. Format: cell-based. The conditions noted are these: 1 μM, 48 h. An excerpt: It is well established that an increased tumor and ECM stiffness is associated with a negative prognosis as it promotes tumor growth, progression, therapy resistance, immunosuppression and metastasis. Stiffness is chiefly regulated by the action of the CAFs in the TME. Stiffness modulation is, therefore, a fitting read-out of activity in a screen for CAF modulators. To assess stiffness modulation, the stiffness of spheroids of CAF cells treated with test compounds was interrogated using atomic force microscopy (AFM) indentation and compared with untreated cells. AFM measurement of the stiffness (elasticity) of cells and spheroids is a technique well-known to those skilled in the art. AFM measures the force required to create a given deflection, this read-out is also known as the Young's modulus. AFM is widely used in biology and cancer research: altered physicochemical properties of live cells serve as a read-out of altered complex physiological processes.
U-shaped, 384-well ULA plates (cat. no. MS-9384UZ, S-bio) were seeded with a suspension of cell-specific culture media with cells. Cells were allowed to form spheroids for an appropriate time under treatment conditions before use in experiments. Cell culture dishes (cat. no. 734-2814, VWR) were filled with collagen gel and placed at 37° C. for an appropriate time to allow solidification. For each condition, spheroids were pooled in one cell culture dish. The medium was removed (stored at 37° C.) to promote attachment of the bottom of each spheroid to the collagen gel. The cell culture dishes were incubated at 37° C. After the incubation period, the stored medium was carefully (prevent detachment of spheroids) added to the dishes.
Mechanical measurements were performed using an atomic force microscope. To indent the spheroids an in-house made colloidal probe was used. Force curves were collected using an appropriate setpoint and probe speed (depending on the stiffness of the spheroids). On each spheroid multiple force curves were collected. Collected curves were then processed using the JPK DP software. Young's modulus was extracted from the force curves. All experiments were performed in biological triplicate.
To generate 3D cultures mimicking the complexity and pathophysiology of in vivo tumors, spheroids were used (cfr. point 4). Spheroids are considered to better simulate cellular heterogeneity, nutrient and oxygen gradients, cell-cell interactions, cell-matrix interactions, gene expression profiles, stromal interactions, therapeutic responses, multicellular resistance, drug penetration and anti-apoptotic signaling.

For data set [2], the system named is 13B2 hTERT, CT5.3 hTERT, HCA2 hTERT, MCF-7/6 and 4T1-Luc cells. As to the kind of experiment: 3D CellTiter-Glo Cell Viability Assay (spheroids). Format: cell-based. The conditions noted are these: 3D spheroids; up to 100 μM; 48 h. Here is the method:
The half maximal inhibitory concentration (IC50) of A1 was evaluated using a CellTiter-Glo® 2.0 Cell Viability Assay (cat. no. G9243, Promega) and a CellTiter-Glo® 3D Cell Viability Assay (cat. no. G9681, Promega). 13B2 hTERT cells (2D: 2×10^5, 3D: 8×10^4) were plated in each well of a Nunc™ MicroWell™ 96-Well, Nunclon Delta-Treated, Flat-Bottom Microplate (cat. no. 167008, Thermo Fisher Scientific) for 2D experiments or 96-well ULA plate (cat. no. MS-9096UZ, S-bio) in a volume of 90 μL/well. A1 was serially diluted in the appropriate medium to 10× the final concentrations. For each treatment condition, 10 μL was added to 3 replicate wells (final concentrations ranging from 1-100 μM) and plates were incubated for 48 h.
The CellTiter-Glo Cell Viability Assay was performed according to manufacturer's instructions. Briefly, the plates and the CellTiter-Glo® Reagent were equilibrated to room temperature (RT). The CellTiter-Glo® Reagent was added to each well in a 1:1 (v/v) ratio. For 2D experiments, cell lysis was induced by placing the plates on an orbital shaker for 2 min, followed by stabilization of the luminescent signal for 10 min. […] Afterwards, the luminescence was measured using a Synergy™ HTX Multi-Mode Microplate Reader (BioTek). The IC50 value was determined using the Graphpad Prism software. […]

Data set [3] concerns 4T1-luc cells. Nature of the data set: 4T1-based intraductal model for triple-negative breast cancer: metastases. Type of data set: in vivo, BALB/c mice. The conditions noted are these: oral in Medigel, 100 mg/kg three times per day; 6 w p.i.; compared to DMSO. How it is done: Intraductal inoculations were performed in the third mammary gland pair of lactating female mice. In order to become lactating, 8-w-old female BALB/c mice were mated with male BALB/c mice of the same age and pups were weaned 12-14 d after delivery. One hour after weaning, lactating females received inhalation anesthesia using a mixture of oxygen and isoflurane (2-3%) and were subsequently inoculated through the mammary teat canal using a 32-gauge blunt needle with 5×10^4 4T1-luc cells suspended in a 100 μl mixture of PBS and Matrigel® (1:10; Corning, Bedford, MA, USA). All necessary materials for inoculation were pre-cooled to avoid Matrigel® coagulation. […]
Compounds were dissolved in DMSO. […] The amount of Medigel given to the mice was weekly determined and depended on the mean mouse body weight and consumption. […]
Body weight and body temperature were measured every day during the first week p.i., and once a week during the following 5 weeks (i.e. up to 6 w p.i.) using a digital weighing scale and a rectal temperature probe, respectively. As a measurement of primary tumor growth, primary tumor volumes were weekly monitored using a digital caliper and 4T1-luc-derived bioluminescence in primary tumors was monitored at 1, 3 and 6 w p.i. using the IVIS lumina III system (PerkinElmer, Zaventem, Belgium). […]

Molecules are shown by their SMILES. “Also recorded” adds a separate entry of the source.

Take `COc1cc(C(=O)/C=C/c2ccc(F)cc2)cc(OC)c1OC` [Compound A1, 3-(4-Fluorophenyl)-1-(3,4,5-trimethoxyphenyl)prop2-en-1-one]: in data set [1], the spheroid stiffness entry is “decreased; also recorded: active”. Besides, the “response of cells cultured as spheroids (viability)” value in data set [2] is recorded as “no response”. Further, the “metastatic burden in lung, liver and axillary lymph node metastases (ex-vivo bioluminescence)” value in data set [3] is recorded as “overall reduction”.
`COc1cc2oc(-c3ccc(F)cc3)cc(=O)c2c(OC)c1OC` [Compound B1, 2-(4-Fluorophenyl)-5,6,7-trimethoxy-4H-chromen-4-one]: the spheroid stiffness result in data set [1] was “active”. For the same compound, the “response of cells cultured as spheroids (viability)” value in data set [2] is on record as “no response”. Also, the “metastatic burden in lung, liver and axillary lymph node metastases (ex-vivo bioluminescence)” value in data set [3] was “overall reduction”.
